Consider 18 compounds from patent publication US8785662B2, “Anilide-based compounds for preserving wood and method of use thereof” (SDS Biotech K.K., priority 2010, dated 2014).

The first experiment has as its system Trametes versicolor. The experiment in a line: Agar plate colony growth inhibition test on Trametes versicolor, single compounds and mixtures with triazoles (Colby). It is filed as cell-based. The conditions noted are these: single compound 0.2 ppm, potato dextrose agar, 25° C., seventh day. On the procedure: Each of 1% w/v dimethylsulfoxide solution of compound A, compound B, cyproconazole (manufactured by Wako Pure Chemical Industries, Ltd.), epoxyconazole (manufactured by Wako Pure Chemical Industries, Ltd.) and tetraconazole (manufactured by Wako Pure Chemical Industries, Ltd.) was prepared. The solutions diluted with dimethylsulfoxide were fully mixed in the sterilized potate dextrose agar medium, and 15 ml of the resultant medium was poured into a petri dish 90 mm in diameter and allowed to stand at room temperature. As a control, the potate dextrose agar medium added with dimethylsulfoxide only was also prepared. After the medium was solidified, the mycelia was scooped with the medium from the colony of Trametes versicolor as being a typical wood-decaying fungi, which had been cultivated in advance, using a cork bailer 5 mm in diameter; and inoculated in the center of the test medium. The fungi was cultivated in the petri dish at 25° C., and the diameter of the colony spread from the source of inoculum was measured on the seventh day. The growth inhibition ratio by comparing the diameter of the test colony to that of the control was determined by the above-mentioned formula as an indication of the actual measured growth inhibition ratio. The theoretical efficacy ratio of the mixture of the active ingredients (i.e. theoretical growth inhibition ratio) was determined using the following Colby's formula (R. S. Colby, Weeds 15, 20-22 (1967)) to thereby be compared with the actual-measured efficacy ratio ([…]). […] Colby's formula: E=x+y−x·y/100 [Formula 2] E: theoretical efficacy ratio (theoretical growth inhibition ratio) represented by the ratio (%) to the control when the mixture of active compound B (concentration b) and C (concentration c) was used. x: efficacy ratio (growth inhibition ratio) represented by the ratio (%) to the control when active compound B was used at a concentration of b. y: efficacy ratio (growth inhibition ratio) represented by the ratio (%) to the control when active compound C was used at a concentration of c.
On to `Fc1ccc([C@]2(Cn3cncn3)O[C@H]2c2ccccc2Cl)cc1` (racemic) [Epoxiconazole, epoxyconazole], for which the “Actual measured growth inhibition ratio (%)” value was determined as 24%.

Regarding `Cc1cc(C(=O)Nc2cccc(C(C)C)c2)c(C(F)(F)F)o1` [Compound A, 3′-isopropyl-5-methyl-2-trifluoromethylfuran-3-carboxylic acid anilide], the “Actual measured growth inhibition ratio (%)” value was determined as 49%.

For `Cc1cc(C(=O)Nc2cccc(OC(C)C)c2)c(C(F)(F)F)o1` [Compound B, 3′-isopropoxy-5-methyl-2-trifluoromethylfuran-3-carboxylic acid anilide], the “Actual measured growth inhibition ratio (%)” value turned out to be 44%.

For the compound `FC(F)C(F)(F)OCC(Cn1cncn1)c1ccc(Cl)cc1Cl` (centres unmarked) [Tetraconazole, tetraconazole], the “Actual measured growth inhibition ratio (%)” value came out at 25%.

Consider `CC(C1CC1)C(O)(Cn1cncn1)c1ccc(Cl)cc1` (centres unmarked) [cyproconazole], for which the “Actual measured growth inhibition ratio (%)” value is 33%.

The subject of the next experiment is Fomitopsis palustris. Put plainly: Agar plate colony growth inhibition test on Fomitopsis palustris. It is filed as cell-based. The conditions noted are these: 0.5 ppm in potato dextrose agar, 25° C., colony diameter on the seventh day vs control. On the procedure: Each of 1% w/v dimethylsulfoxide solution of compound A, compound B and comparative compounds 1 to 13 was prepared. A predetermined amount of the solutions diluted with dimethylsulfoxide were fully mixed in the sterilized potato dextrose agar medium, and 15 ml of the resultant medium was poured into a petri dish 90 mm in diameter and allowed to stand at room temperature. As a control, the potato dextrose agar medium added with dimethylsulfoxide only was also prepared. […] The fungi was cultivated in the petri dish at 25° C., and the diameter of the colony spread from the source of inoculum was measured on the seventh day. The growth inhibition ratio between the diameter of the test colony and that of the control was determined by the following formula as an indication of the degree of inhibition. Compounds A and B apparently had greater effects on Fomitopsis palustris compared to the compounds which had been disclosed in the past. Growth inhibition ratio (%)={(diameter of the control colony−diameter of the test colony)/diameter of the control colony}×100 [Formula 1]
Consider `Cc1cc(C(=O)Nc2cccc(C(C)C)c2)c(C(F)(F)F)o1` [Compound A, 3′-isopropyl-5-methyl-2-trifluoromethylfuran-3-carboxylic acid anilide], for which the “Degree of inhibition on Fomitopsis palustris at 0.5 ppm” value (shortened to “Degree of inhibition”) is recorded as “∘ (inhibition ratio of 75% or more)”.

In the case of `Cc1cc(C(=O)Nc2cccc(OC(C)C)c2)c(C(F)(F)F)o1` [Compound B, 3′-isopropoxy-5-methyl-2-trifluoromethylfuran-3-carboxylic acid anilide], the “Degree of inhibition” value is reported as “∘ (inhibition ratio of 75% or more)”.

With `Cc1cc(C(=O)Nc2cccc(C(C)C)c2)c(C)o1` [compound 1, 3′-isopropyl-2,5-dimethylfuran-3-carboxylic acid anilide], the “Degree of inhibition” value is recorded as “▴ (inhibition ratio of 25 to 50%)”.

Take `CCc1cccc(NC(=O)c2cc(C)oc2C)c1` [compound 2, 3′-ethyl-2,5-dimethylfuran-3-carboxylic acid anilide]: the “Degree of inhibition” value is “▴ (inhibition ratio of 25 to 50%)”.

As for `Cc1cccc(NC(=O)c2cc(C)oc2C)c1` [compound 3, 3′-methyl-2,5-dimethylfuran-3-carboxylic acid anilide], the “Degree of inhibition” value is listed as “x (inhibition ratio of 25% or less)”.

`CC(C)Oc1cccc(NC(=O)c2ccccc2C(F)(F)F)c1` [compound 4, 3′-isopropoxy-2-trifluoromethyl benzoic acid anilide]: the “Degree of inhibition” value is given as “▴ (inhibition ratio of 25 to 50%)”.

`Cc1ccccc1C(=O)Nc1cccc(OC(C)C)c1` [compound 5, 3′-isopropoxy-2-methylbenzoic acid anilide]: the “Degree of inhibition” value is given as “▴ (inhibition ratio of 25 to 50%)”.

As to `Cc1ccccc1C(=O)Nc1cccc(C(C)C)c1` [compound 6, 3′-isopropyl-2-methylbenzoic acid anilide], the “Degree of inhibition” value was “▴ (inhibition ratio of 25 to 50%)”.

For `CC(C)c1cccc(NC(=O)c2ccoc2)c1` [compound 7, 3′-isopropyl-3-furancarboxylic acid anilide], the “Degree of inhibition” value was “x (inhibition ratio of 25% or less)”.

On to `Cc1occc1C(=O)Nc1cccc(C(C)C)c1` [compound 8, 3′-isopropyl-2-methylfuran-3-carboxylic acid anilide], for which the “Degree of inhibition” value is recorded as “▴ (inhibition ratio of 25 to 50%)”.

As to `Cc1ncsc1C(=O)Nc1cccc(C(C)C)c1` [compound 9, 3′-isopropyl-4-methylthiazole-5-carboxylic acid anilide], the “Degree of inhibition” value is recorded as “x (inhibition ratio of 25% or less)”.

Take `Cc1nc(C)c(C(=O)Nc2cccc(C(C)C)c2)s1` [compound 10, 3′-isopropyl-2,4-dimethyl-1,3-thiazole-5-carboxylic acid anilide]: the “Degree of inhibition” value is “Δ (inhibition ratio of 50 to 75%)”.

On to `Cc1nc(C(F)(F)F)c(C(=O)Nc2cccc(C(C)C)c2)s1` [compound 11, 3′-isopropyl-2-methyl-4-trifluoromethyl-1,3-thiazole-5-carboxylic acid anilide], for which the “Degree of inhibition” value is “▴ (inhibition ratio of 25 to 50%)”.

On to `Cc1cc(C(=O)Nc2cccc(C(C)C)c2)c(C)[nH]1` [compound 12, 3′-isopropyl-2,5-dimethylpyrrole-3-carboxylic acid anilide], for which the “Degree of inhibition” value was “x (inhibition ratio of 25% or less)”.

Take `CC(C)c1cccc(NC(=O)c2cn(C)nc2C(F)(F)F)c1` [compound 13, 3′-isopropyl-1-methyl-3-trifluoromethylpyrazole-4-carboxylic acid anilide]: the “Degree of inhibition” value is listed as “▴ (inhibition ratio of 25 to 50%)”.
